Key:
Conditions in all cases: scale 0 to 100
chamomile = experiment: Test D postemergence; format: in vivo, Matricaria inodora
Excerpt: (§1) Seeds of plant species selected from bluegrass (annual bluegrass, Poa annua), blackgrass (Alopecurus myosuroides), canarygrass (littleseed canarygrass, Phalaris minor), chickweed (common chickweed, Stellaria media), galium (catchweed bedstraw, Galium aparine), bromegrass, downy (downy bromegrass, Bromus tectorum), field poppy (Papaver rhoeas), field violet (Viola arvensis), foxtail, green (green foxtail, Setaria viridis), deadnettle (henbit deadnettle, Lamium amplexicaule), ryegrass, Italian (Italian ryegrass, Lolium multiflorum), kochia (Kochia scoparia), lambsquarters (Chenopodium album), oilseed rape (Brassica napus), pigweed (redroot pigweed, Amaranthus retroflexus), chamomile (scentless chamomile, Matricaria inodora), speedwell (bird's-eye speedwell, Veronica persica), barley, spring (spring barley, Hordeum vulgare), wheat, spring (spring wheat, Triticum aestivum), buckwheat, wild (wild buckwheat, Polygonum convolvulus), mustard, wild (wild mustard, Sinapis arvensis), oat, wild (wild oat, Avena fatua), radish, wild (wild radish, Raphanus raphanistrum), windgrass (Apera spica-venti), Russian thistle (Salsola kali), barley, winter (winter barley, Hordeum vulgare), and wheat, winter (winter wheat, Triticum aestivum) were planted into a silt loam soil and treated preemergence with test chemicals formulated in a non-phytotoxic solvent mixture which included a surfactant.
(§2) At the same time, these species were planted in pots containing Redi-Earth® planting medium (Scotts Company, 14111 Scottslawn Road, Marysville, Ohio 43041) comprising spaghnum peat moss, vermiculite, wetting agent and starter nutrients and treated with postemergence applications of the test chemicals formulated in the same manner. Plants ranged in height from 2 to 18 cm (1- to 4-leaf stage). Treated plants and controls were maintained in a controlled growth environment for 14 to 21 days after which time all species were compared to controls and visually evaluated. Plant response ratings, summarized in Table D, are based on a scale of 0 to 100 where 0 is no effect and 100 is complete control. A dash (-) response means no test result.

field violet = experiment: Test D postemergence; format: in vivo, Viola arvensis
Excerpt: as §1, §2

pigweed [1] = experiment: Test D preemergence; format: in vivo, Amaranthus retroflexus
Excerpt: as §1, §2

mustard, wild = experiment: Test D preemergence; format: in vivo, Sinapis arvensis
Excerpt: as §1, §2

canarygrass = experiment: Test D preemergence; format: in vivo, Phalaris minor
Excerpt: as §1, §2

deadnettle = experiment: Test D postemergence; format: in vivo, Lamium amplexicaule
Excerpt: as §1, §2

pigweed [2] = experiment: Test D postemergence; format: in vivo, Amaranthus retroflexus
Excerpt: as §1, §2

lambsquarters = experiment: Test D preemergence; format: in vivo, Chenopodium album
Excerpt: as §1, §2

bluegrass = experiment: Test D postemergence; format: in vivo, Poa annua
Excerpt: as §1, §2

| SMILES | Chamomile plant response rating (chamomile; Postemergence, 31 g ai/ha) | Chamomile plant response rating (chamomile; Postemergence, 125 g ai/ha) | Chamomile plant response rating (chamomile; Postemergence, 250 g ai/ha) | Chamomile plant response rating (chamomile; postemergence, 62 g ai/ha) | Field Violet plant response rating (field violet; Postemergence, 31 g ai/ha) | Field Violet plant response rating (field violet; Postemergence, 125 g ai/ha) | Field Violet plant response rating (field violet; Postemergence, 250 g ai/ha) | Field Violet plant response rating (field violet; postemergence, 62 g ai/ha) | Plant response rating, Pigweed (pigweed [1]; 62 g ai/ha) | Plant response rating, Pigweed (pigweed [1]; 125 g ai/ha) | Plant response rating, Pigweed (pigweed [1]; 250 g ai/ha) | Plant response rating, Mustard, Wild (mustard, wild; 62 g ai/ha) | Plant response rating, Mustard, Wild (mustard, wild; 125 g ai/ha) | Plant response rating, Mustard, Wild (mustard, wild; 250 g ai/ha) | Plant response rating, Canarygrass (canarygrass; 31 g ai/ha) | Plant response rating, Canarygrass (canarygrass; 62 g ai/ha) | Plant response rating, Canarygrass (canarygrass; 125 g ai/ha) | Plant response rating, Canarygrass (canarygrass; 250 g ai/ha) | Deadnettle plant response rating (deadnettle; Postemergence, 31 g ai/ha) | Deadnettle plant response rating (deadnettle; Postemergence, 125 g ai/ha) | also measured |
| --- | --- | --- | --- | --- | --- | --- | --- | --- | --- | --- | --- | --- | --- | --- | --- | --- | --- | --- | --- | --- | --- |
| CCc1cc(C(=O)NC(C)C)nn1Cc1ccnc(C(F)(F)F)c1 [Compound 103] | 10 | 30 | 60 | 30 | 35 | 60 | 60 | 55 | 100 | 100 | 100 | 60 | 75 | 100 | 5 | 55 | 80 | 100 | 20 | 25 | Plant response rating, Pigweed (pigweed [1]; 31 g ai/ha): 100; Plant response rating, Mustard, Wild (mustard, wild; 31 g ai/ha): 55; Deadnettle plant response rating (deadnettle; Postemergence, 250 g ai/ha): 30; Deadnettle plant response rating (deadnettle; postemergence, 62 g ai/ha): 25; Pigweed plant response rating (pigweed [2]; Postemergence, 31 g ai/ha): 70; Pigweed plant response rating (pigweed [2]; Postemergence, 125 g ai/ha): 65; Pigweed plant response rating (pigweed [2]; Postemergence, 250 g ai/ha): 70; Pigweed plant response rating (pigweed [2]; postemergence, 62 g ai/ha): 60; Plant response rating, Lambsquarters (lambsquarters; 31 g ai/ha): 65; Plant response rating, Lambsquarters (lambsquarters; 62 g ai/ha): 70; Plant response rating, Lambsquarters (lambsquarters; 125 g ai/ha): 100; Plant response rating, Lambsquarters (lambsquarters; 250 g ai/ha): 100; Bluegrass plant response rating (bluegrass; Postemergence, 31 g ai/ha): 10; Bluegrass plant response rating (bluegrass; Postemergence, 125 g ai/ha): 20; Bluegrass plant response rating (bluegrass; Postemergence, 250 g ai/ha): 30; Bluegrass plant response rating (bluegrass; postemergence, 62 g ai/ha): 25 |
| CCCc1cc(C(=O)NCC(F)(F)F)nn1Cc1cc(C(F)(F)F)nn1C [Compound 138] | 50 | 60 | 65 | 50 | 80 | 75 | 95 | 80 | 100 | 100 | 100 | 100 | 100 | 100 | 15 | 70 | 100 | 100 | 65 | 75 | Deadnettle plant response rating (deadnettle; Postemergence, 250 g ai/ha): 85; Deadnettle plant response rating (deadnettle; postemergence, 62 g ai/ha): 65; Pigweed plant response rating (pigweed [2]; Postemergence, 31 g ai/ha): 90; Pigweed plant response rating (pigweed [2]; Postemergence, 125 g ai/ha): 90; Pigweed plant response rating (pigweed [2]; Postemergence, 250 g ai/ha): 90; Pigweed plant response rating (pigweed [2]; postemergence, 62 g ai/ha): 90; Plant response rating, Lambsquarters (lambsquarters; 62 g ai/ha): 85; Plant response rating, Lambsquarters (lambsquarters; 125 g ai/ha): 100; Plant response rating, Lambsquarters (lambsquarters; 250 g ai/ha): 100; Bluegrass plant response rating (bluegrass; Postemergence, 31 g ai/ha): 15; Bluegrass plant response rating (bluegrass; Postemergence, 125 g ai/ha): 30; Bluegrass plant response rating (bluegrass; Postemergence, 250 g ai/ha): 60; Bluegrass plant response rating (bluegrass; postemergence, 62 g ai/ha): 15 |
